The subject of the assay is MV-4-11 cells. The experiment in a line: Gene expression microarray analysis (Affymetrix PrimeView) and GSEA. The settings on record: MV-4-11 cells, 48 hours. Set-up: RFU PODN (11730768_x_at) / Fold change /veh PODN (11730768_x_at) / RFU LINC00158 (11744669_a_at) / Fold change /veh LINC00158 (11744669_a_at) / RFU DUSP10 (11751237_a_at) / Fold change /veh DUSP10 (11751237_a_at) / RFU ID3 (11757404_x_at) / Fold change /veh ID3 (11757404_x_at) / RFU PLEKHG5 (11737974_s_at) / Fold change /veh PLEKHG5 (11737974_s_at) / RFU LRRC4B (11730491_at) / Fold change /veh LRRC4B (11730491_at) / RFU GIMAP4 (11747438_a_at) / Fold change /veh GIMAP4 (11747438_a_at) / RFU KRT8 (11758183_x_at) / Fold change /veh KRT8 (11758183_x_at) / RFU CNN1 (11734310_a_at) / Fold change /veh CNN1 (11734310_a_at) / RFU VPS37D (11726825_at) / Fold change /veh VPS37D (11726825_at) / RFU C10orf10 (11716522_x_at) / Fold change /veh C10orf10 (11716522_x_at) / RFU KIR2DL2 /// KIR2DL4 /// KIR2DL5A /// KIR2DL5B /// KIR2DS1 /// KIR2DS2 /// KIR2DS3 /// KIR2DS4 /// KIR3DL3 /// KIR3DL3 /// KIR3DS1 (11738374_at) / Fold change /veh KIR2DL2 /// KIR2DL4 /// KIR2DL5A /// KIR2DL5B /// KIR2DS1 /// KIR2DS2 /// KIR2DS3 /// KIR2DS4 /// KIR3DL3 /// KIR3DL3 /// KIR3DS1 (11738374_at) / RFU C1QL1 (11718748_at) / Fold change /veh C1QL1 (11718748_at) / RFU TMPRSS4 (11747572_a_at) / Fold change /veh TMPRSS4 (11747572_a_at) / RFU HAMP (11756126_x_at) / Fold change /veh HAMP (11756126_x_at) / RFU RNFT2 (11725882_a_at) / Fold change /veh RNFT2 (11725882_a_at) / RFU NR4A2 (11747474_a_at) / Fold change /veh NR4A2 (11747474_a_at) / RFU ABCC12 (11746883_a_at) / Fold change /veh ABCC12 (11746883_a_at) / RFU TMEM136 (11760407_x_at) / Fold change /veh TMEM136 (11760407_x_at) / RFU CLDN22 /// WWC2 (11732394_at) / Fold change /veh CLDN22 /// WWC2 (11732394_at) / RFU HLA-DPB1 (11760878_x_at) / Fold change /veh HLA-DPB1 (11760878_x_at) / RFU SPINT1 (11716480_a_at) / Fold change /veh SPINT1 (11716480_a_at) / RFU GAP43 (11754022_s_at) / Fold change /veh GAP43 (11754022_s_at) / RFU A4GNT (11735810_at) / Fold change /veh A4GNT (11735810_at) / RFU PRB3 (11715151_x_at) / Fold change /veh PRB3 (11715151_x_at) / RFU TUBB4B (11761932_at) / Fold change /veh TUBB4B (11761932_at) / RFU CAPN14 (11732068_a_at) / Fold change /veh CAPN14 (11732068_a_at) / RFU TMCC2 (11721928_a_at) / Fold change /veh TMCC2 (11721928_a_at) / RFU IRGQ (11745062_a_at) / Fold change /veh IRGQ (11745062_a_at) / RFU FAM174B (11720279_a_at) / Fold change /veh FAM174B (11720279_a_at) / RFU TMPRSS4 (11748680_a_at) / Fold change /veh TMPRSS4 (11748680_a_at) / RFU FAM212B (11763350_a_at) / Fold change /veh FAM212B (11763350_a_at) / RFU PLEKHG5 (11743358_a_at) / Fold change /veh PLEKHG5 (11743358_a_at) / RFU ZSCAN30 (11745921_a_at) / Fold change /veh ZSCAN30 (11745921_a_at) / RFU CMKLR1 (11741424_a_at) / Fold change /veh CMKLR1 (11741424_a_at) / RFU LOC101060620 /// MAPK8IP1 (11723275_at) / Fold change /veh LOC101060620 /// MAPK8IP1 (11723275_at) / RFU SPTSSB (11747773_x_at) / Fold change /veh SPTSSB (11747773_x_at) / RFU PRSS12 (11739890_at) / Fold change /veh PRSS12 (11739890_at) / RFU BIN1 (11741810_x_at) / Fold change /veh BIN1 (11741810_x_at) / RFU WNT11 (11732464_a_at) / Fold change /veh WNT11 (11732464_a_at) / RFU C10orf10 (11716521_a_at) / Fold change /veh C10orf10 (11716521_a_at) / RFU C5orf56 (11738089_at) / Fold change /veh C5orf56 (11738089_at) / RFU CYB561 (11721691_x_at) / Fold change /veh CYB561 (11721691_x_at) / RFU ANKRD19P (11752326_a_at) / Fold change /veh ANKRD19P (11752326_a_at) / RFU OR2T12 /// OR2T33 /// OR2T8 (11738714_s_at) / Fold change /veh OR2T12 /// OR2T33 /// OR2T8 (11738714_s_at) / RFU VCAN (11748164_a_at) / Fold change /veh VCAN (11748164_a_at) / RFU JSRP1 (11732532_at) / Fold change /veh JSRP1 (11732532_at) / RFU KRTAP10-11 (11738290_x_at) / Fold change /veh KRTAP10-11 (11738290_x_at) / RFU MYO3A (11730013_a_at) / Fold change /veh MYO3A (11730013_a_at) / RFU EBF3 (11725865_a_at) / Fold change /veh EBF3 (11725865_a_at) / RFU CAMK2N1 (11719241_x_at) / Fold change /veh CAMK2N1 (11719241_x_at) / RFU C5orf56 (11738088_a_at) / Fold change /veh C5orf56 (11738088_a_at) / RFU OLFML3 (11715873_a_at) / Fold change /veh OLFML3 (11715873_a_at) / RFU LOC100653217 /// NTM (11731650_a_at) / Fold change /veh LOC100653217 /// NTM (11731650_a_at) / RFU MAPK11 (11762145_a_at) / Fold change /veh MAPK11 (11762145_a_at) / RFU FIZ1 (11724087_x_at) / Fold change /veh FIZ1 (11724087_x_at) / RFU OASL (11726364_x_at) / Fold change /veh OASL (11726364_x_at) / RFU SOX15 (11748057_x_at) / Fold change /veh SOX15 (11748057_x_at) / RFU CD79A (11719716_a_at) / Fold change /veh CD79A (11719716_a_at) / RFU HIST1H1D (11736915_at) / Fold change /veh HIST1H1D (11736915_at) / RFU CASKIN2 (11723855_a_at) / Fold change /veh CASKIN2 (11723855_a_at) / RFU LOC730098 (11760151_x_at) / Fold change /veh LOC730098 (11760151_x_at) / RFU OR4N2 (11742367_at) / Fold change /veh OR4N2 (11742367_at) / RFU PRRT2 (11749266_a_at) / Fold change /veh PRRT2 (11749266_a_at) / RFU SNX32 (11753110_a_at) / Fold change /veh SNX32 (11753110_a_at) / RFU CDHR5 (11726645_a_at) / Fold change /veh CDHR5 (11726645_a_at) / RFU RCAN1 (11760418_a_at) / Fold change /veh RCAN1 (11760418_a_at) / RFU FAM167A (11723789_a_at) / Fold change /veh FAM167A (11723789_a_at) / RFU FAM26E (11764081_at) / Fold change /veh FAM26E (11764081_at) / RFU ISYNA1 (11749810_s_at) / Fold change /veh ISYNA1 (11749810_s_at) / RFU ACY1 (11761880_at) / Fold change /veh ACY1 (11761880_at) / RFU 11764098_at / Fold change /veh 11764098_at / RFU SAMD14 (11745864_x_at) / Fold change /veh SAMD14 (11745864_x_at) / RFU NPB (11741838_a_at) / Fold change /veh NPB (11741838_a_at) / RFU TMPRSS6 (11731388_a_at) / Fold change /veh TMPRSS6 (11731388_a_at) / RFU KRTAP10-2 (11738614_at) / Fold change /veh KRTAP10-2 (11738614_at) / RFU ARHGAP8 /// PRR5-ARHGAP8 (11727945_x_at) / Fold change /veh ARHGAP8 /// PRR5-ARHGAP8 (11727945_x_at) / RFU KRTAP5-7 /// NADSYN1 (11734609_at) / Fold change /veh KRTAP5-7 /// NADSYN1 (11734609_at) / RFU RASL12 (11751679_a_at) / Fold change /veh RASL12 (11751679_a_at) / RFU CDKN2B (11736163_a_at) / Fold change /veh CDKN2B (11736163_a_at) / RFU PRF1 (11729649_at) / Fold change /veh PRF1 (11729649_at) / RFU, ZNF638 /// ZNF638-IT1 / Fold change vs veh, ZNF638 /// ZNF638-IT1 / RFU, PANK3 / Fold change vs veh, PANK3 / RFU, SH3YL1 / Fold change vs veh, SH3YL1 / RFU, ZEB2 / Fold change vs veh, ZEB2 / RFU, NRIP1 / Fold change vs veh, NRIP1 / RFU, PTTG1IP / Fold change vs veh, PTTG1IP / RFU, CAPN2 / Fold change vs veh, CAPN2 / RFU, MED14 / Fold change vs veh, MED14 / RFU, SNORA58 / Fold change vs veh, SNORA58 / RFU, C1orf63 / Fold change vs veh, C1orf63 / RFU, LRRFIP1 / Fold change vs veh, LRRFIP1 / RFU, NDUFAF7 / Fold change vs veh, NDUFAF7 / RFU, SLC12A2 / Fold change vs veh, SLC12A2 / RFU, IBTK / Fold change vs veh, IBTK / RFU, ESF1 / Fold change vs veh, ESF1 / Fold change vs veh, TMEM50B / RFU, TAOK1 / Fold change vs veh, TAOK1 / RFU, ACBD3 / Fold change vs veh, ACBD3 / RFU, TMA16 / Fold change vs veh, TMA16 / RFU, RWDD3 / Fold change vs veh, RWDD3 / RFU, BCAT1 / Fold change vs veh, BCAT1 / RFU, EDEM3 / Fold change vs veh, EDEM3 / RFU, TMEM33 / Fold change vs veh, TMEM33 / RFU, WDR75 / Fold change vs veh, WDR75 / RFU, AHCTF1 / Fold change vs veh, AHCTF1 / RFU, TFRC / Fold change vs veh, TFRC / RFU, ZDHHC17 / Fold change vs veh, ZDHHC17 / RFU, NOM1 / Fold change vs veh, NOM1 / RFU, ARL8B / Fold change vs veh, ARL8B / RFU, ZBTB11 / Fold change vs veh, ZBTB11 / RFU, TAMM41 / Fold change vs veh, TAMM41 / RFU, KIAA1704 /// LOC100996395 / Fold change vs veh, KIAA1704 /// LOC100996395 / RFU, ING1 / Fold change vs veh, ING1 / RFU, TRMT61B / Fold change vs veh, TRMT61B / RFU, FUBP3 / Fold change vs veh, FUBP3 / RFU, TP53 / Fold change vs veh, TP53 / RFU, TNKS2 / Fold change vs veh, TNKS2 / RFU, ZFP14 / Fold change vs veh, ZFP14 / RFU, ACTR2 / Fold change vs veh, ACTR2 / RFU, PPP3R1 / Fold change vs veh, PPP3R1 / RFU, PIK3R1 / Fold change vs veh, PIK3R1 / RFU, HNRNPA1 / Fold change vs veh, HNRNPA1 / RFU, RNF170 / Fold change vs veh, RNF170 / RFU, ZNF28 / Fold change vs veh, ZNF28 / RFU, RNGTT / Fold change vs veh, RNGTT / RFU, OGT / Fold change vs veh, OGT / RFU, BRD1 / Fold change vs veh, BRD1 / RFU, MARS / Fold change vs veh, MARS / RFU, ZNF655 / Fold change vs veh, ZNF655 / RFU, FAHD1 / Fold change vs veh, FAHD1 / RFU, BDP1 / Fold change vs veh, BDP1 / RFU, LRRCC1 / Fold change vs veh, LRRCC1 / RFU, ARID1A / Fold change vs veh, ARID1A / RFU, ZNF146 / Fold change vs veh, ZNF146 / RFU, ZNF330 / Fold change vs veh, ZNF330 / RFU, GPN3 / Fold change vs veh, GPN3 / RFU, C9orf123 / Fold change vs veh, C9orf123 / RFU, N4BP2L2 / Fold change vs veh, N4BP2L2 / RFU, ARFIP1 / Fold change vs veh, ARFIP1 / RFU, FAM179B / Fold change vs veh, FAM179B / RFU, BCL10 / Fold change vs veh, BCL10 / RFU, UHRF1BP1L / Fold change vs veh, UHRF1BP1L / RFU, BET1 / Fold change vs veh, BET1 / RFU, CNOT2 / Fold change vs veh, CNOT2 / RFU, ZNF268 / Fold change vs veh, ZNF268 / Fold change vs veh, ZNF507 / RFU, DGCR2 / Fold change vs veh, DGCR2 / RFU, WDSUB1 / Fold change vs veh, WDSUB1 / Fold change vs veh, HSP90B1 /// MIR3652 / RFU, ADSS / Fold change vs veh, ADSS / RFU, GK / Fold change vs veh, GK / RFU, ZNF148 / Fold change vs veh, ZNF148 / RFU, TAF9 / Fold change vs veh, TAF9 / RFU, SLC1A5 / Fold change vs veh, SLC1A5 / RFU, SLMO2 / Fold change vs veh, SLMO2 / RFU, ABCC4 / Fold change vs veh, ABCC4 / RFU, LOC101060439 /// RAP1B / Fold change vs veh, LOC101060439 /// RAP1B / RFU, RFX7 / Fold change vs veh, RFX7 / RFU, GTPBP10 / Fold change vs veh, GTPBP10 / RFU, CNEP1R1 / Fold change vs veh, CNEP1R1 / RFU, BIVM-ERCC5 /// ERCC5 / Fold change vs veh, BIVM-ERCC5 /// ERCC5 / RFU, ILF3 / Fold change vs veh, ILF3 / RFU 11762660_at / Fold change /veh 11762660_at / RFU VCAN (11757783_s_at) / Fold change /veh VCAN (11757783_s_at) / RFU DDX43 (11728927_at) / Fold change /veh DDX43 (11728927_at) / RFU KRT8 (11758188_x_at) / Fold change /veh KRT8 (11758188_x_at) / RFU NKD1 (11759106_at) / Fold change /veh NKD1 (11759106_at) / RFU SRD5A1 (11742802_a_at) / Fold change /veh SRD5A1 (11742802_a_at) / RFU TPSAB1 /// TPSB2 (11721975_s_at) / Fold change /veh TPSAB1 /// TPSB2 (11721975_s_at) / RFU GSTM3 (11746129_a_at) / Fold change /veh GSTM3 (11746129_a_at) / RFU IL23R (11737362_x_at) / Fold change /veh IL23R (11737362_x_at) / RFU TMEM51 (11727254_a_at) / Fold change /veh TMEM51 (11727254_a_at) / RFU PIWIL2 (11732686_x_at) / Fold change /veh PIWIL2 (11732686_x_at) / RFU ORM1 (11744905_x_at) / Fold change /veh ORM1 (11744905_x_at) / RFU CCDC152 (11743942_at) / Fold change /veh CCDC152 (11743942_at) / RFU ECM1 (11717891_a_at) / Fold change /veh ECM1 (11717891_a_at) / RFU IL23R (11748794_a_at) / Fold change /veh IL23R (11748794_a_at) / RFU TNFAIP8L3 (11732012_x_at) / Fold change /veh TNFAIP8L3 (11732012_x_at) / RFU MBOAT4 (11741988_at) / Fold change /veh MBOAT4 (11741988_at) / RFU 11764193_at / Fold change /veh 11764193_at / RFU TMEM53 (11763286_at) / Fold change /veh TMEM53 (11763286_at) / RFU MAGEB2 (11727129_at) / Fold change /veh MAGEB2 (11727129_at) / RFU TMEM200A (11744735_a_at) / Fold change /veh TMEM200A (11744735_a_at) / RFU CCDC152 (11751479_a_at) / Fold change /veh CCDC152 (11751479_a_at) / RFU FAM211A (11726209_a_at) / Fold change /veh FAM211A (11726209_a_at) / RFU RGS16 (11746705_a_at) / Fold change /veh RGS16 (11746705_a_at) / RFU VCAN (11755009_s_at) / Fold change /veh VCAN (11755009_s_at) / RFU RHOB (11743442_s_at) / Fold change /veh RHOB (11743442_s_at) / RFU RGS16 (11720943_a_at) / Fold change /veh RGS16 (11720943_a_at) / RFU RGS16 (11720944_at) / Fold change /veh RGS16 (11720944_at) / RFU, VPS4B / Fold change vs veh, VPS4B / RFU, CREB1 / Fold change vs veh, CREB1 / RFU, DNAJC13 / Fold change vs veh, DNAJC13 / RFU, GNAQ / Fold change vs veh, GNAQ / RFU, CDK5R1 / Fold change vs veh, CDK5R1 / RFU, ZRANB3 / Fold change vs veh, ZRANB3 / RFU, CUL4A / Fold change vs veh, CUL4A / RFU, CCNY / Fold change vs veh, CCNY / RFU, UFL1 / Fold change vs veh, UFL1 / RFU, COG3 / Fold change vs veh, COG3 / RFU, DIAPH2 / Fold change vs veh, DIAPH2 / RFU, SKA2 / Fold change vs veh, SKA2 / RFU, AFF3 / Fold change vs veh, AFF3 / RFU, LMF1 / Fold change vs veh, LMF1 / RFU, IPO11 / Fold change vs veh, IPO11 / RFU, DFFB / Fold change vs veh, DFFB / RFU, FOXP1 / Fold change vs veh, FOXP1 / RFU, CARD8 / Fold change vs veh, CARD8 / RFU, STRN3 / Fold change vs veh, STRN3 / RFU, ADK / Fold change vs veh, ADK / RFU, RASSF2 / Fold change vs veh, RASSF2 / RFU, WIPF1 / Fold change vs veh, WIPF1 / RFU, LARP1B / Fold change vs veh, LARP1B / RFU, RASA1 / Fold change vs veh, RASA1 / RFU, RB1 / Fold change vs veh, RB1 / RFU, PPFIA1 / Fold change vs veh, PPFIA1 / RFU, MAT2A / Fold change vs veh, MAT2A / RFU, CCT5 / Fold change vs veh, CCT5 / RFU, WDR92 / Fold change vs veh, WDR92 / RFU, CUX1 / Fold change vs veh, CUX1 / RFU, TTC7A / Fold change vs veh, TTC7A / RFU, TMEM135 / Fold change vs veh, TMEM135 / RFU, DEPTOR / Fold change vs veh, DEPTOR / RFU, CPM / Fold change vs veh, CPM / RFU, DNAJB6 / Fold change vs veh, DNAJB6 / RFU, CACNA2D3 / Fold change vs veh, CACNA2D3 / RFU, DTX4 / Fold change vs veh, DTX4 / RFU, TFCP2 / Fold change vs veh, TFCP2 / RFU, GMCL1 /// GMCL1P1 / Fold change vs veh, GMCL1 /// GMCL1P1 / RFU, AEBP2 / Fold change vs veh, AEBP2 / RFU, SNHG1 /// SNORD22 /// SNORD25 /// SNORD26 /// SNORD27 /// SNORD28 /// SNORD29 /// SNORD31 / Fold change vs veh, SNHG1 /// SNORD22 /// SNORD25 /// SNORD26 /// SNORD27 /// SNORD28 /// SNORD29 /// SNORD31 / Fold change (Aza/veh), C12orf56 (ProbeSet 11735607_a_at) / Fold change (ACY-1035/veh), C12orf56 (ProbeSet 11735607_a_at) / Fold change (Aza/veh), FGFR1OP (ProbeSet 11751329_s_at) / Fold change (ACY-1035/veh), FGFR1OP (ProbeSet 11751329_s_at) / Fold change (Aza/veh), VPS36 (ProbeSet 11739960_a_at) / Fold change (ACY-1035/veh), VPS36 (ProbeSet 11739960_a_at) / RFU SYPL1 (11715823_x_at) / Fold change /veh SYPL1 (11715823_x_at) / RFU IGFBP7 (11715501_s_at) / Fold change /veh IGFBP7 (11715501_s_at) / RFU REEP3 (11722064_at) / Fold change /veh REEP3 (11722064_at) / RFU IGLL1 (11728026_x_at) / Fold change /veh IGLL1 (11728026_x_at): dose or concentration left out as unconfirmed. In kind it is cell-based, human.

This is an account of results in article PMC5218480 (PLoS ONE, 2017).

SMILES strings stand for the structures.

`Nc1ccc(-c2cccs2)cc1NC(=O)c1ccc2c(c1)cc(C1CC1)n2CCN1CCOCC1` [ACY-1035]: the “Fold change /veh IGFBP7 (11715501_s_at)” value was determined as 0.33.
